From patent US8604218B2, “Cytoskeletal active rho kinase inhibitor compounds, composition and use” (Inspire Pharmaceuticals, Inc., priority 2006, dated 2013) come the findings set out here.

Sequence of ROCK2 (O75116 11-552): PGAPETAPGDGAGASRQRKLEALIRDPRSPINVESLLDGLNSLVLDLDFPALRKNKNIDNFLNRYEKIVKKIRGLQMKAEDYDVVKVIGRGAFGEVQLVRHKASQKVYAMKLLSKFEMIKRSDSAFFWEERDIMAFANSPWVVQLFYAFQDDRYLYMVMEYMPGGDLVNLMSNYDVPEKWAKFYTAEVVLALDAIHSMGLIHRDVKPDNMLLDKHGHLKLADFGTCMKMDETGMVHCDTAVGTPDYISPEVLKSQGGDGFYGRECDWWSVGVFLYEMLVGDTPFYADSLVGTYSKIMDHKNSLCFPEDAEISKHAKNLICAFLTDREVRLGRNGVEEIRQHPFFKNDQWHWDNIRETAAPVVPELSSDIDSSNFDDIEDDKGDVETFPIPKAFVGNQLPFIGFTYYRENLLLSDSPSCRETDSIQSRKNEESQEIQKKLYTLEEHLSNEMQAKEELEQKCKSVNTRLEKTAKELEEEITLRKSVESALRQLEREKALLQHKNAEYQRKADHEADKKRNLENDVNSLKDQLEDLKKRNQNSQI

This test has as its target ROCK2 (Homo sapiens (Human), UniProt O75116). Nature of the test: Rho Kinase Inhibition Assay (IMAP fluorescence polarization). In kind it is biochemical. To be noted: isolated enzyme, 10 μM ATP, 60 minutes at room temperature. (Fluorescence polarisation rises when a labelled molecule tumbles more slowly, as on binding a larger partner.)
Usually IC50 stands for the concentration needed to halve the response being measured. Low values mean greater potency, high ones weaker potency. For the compound `Cc1ccc(CN2CCCC(Nc3ccc4[nH]ncc4c3)C2)cc1O` (stereo not shown) [Compound 1.059, 5-((3-(1H-indazol-5-ylamino)piperidin-1-yl)methyl)-2-methylphenol], inhibition was half-maximal at 32 nM (IC50).

In turn, `OCc1ccc(CN2CCCC(Nc3ccc4[nH]ncc4c3)C2)cc1` (stereo not shown) [Compound 1.025, (4-((3-(1H-indazol-5-ylamino)piperidin-1-yl)methyl)phenyl)methanol] gave an IC50 of 588 nM.

The compound `OCCCOc1cccc(CN2CCCC(Nc3ccc4[nH]ncc4c3)C2)c1` (stereo not shown) [Compound 1.084, 3-(3-((3-(1H-indazol-5-ylamino)piperidin-1-yl)methyl)phenoxy)propan-1-ol] displayed an IC50 of 274 nM.

As to `CCS(=O)(=O)Nc1cccc(CN2CCCC(Nc3ccc4[nH]ncc4c3)C2)c1` (stereo not shown) [Compound 1.120, N-(3-((3-(1H-indazol-5-ylamino)piperidin-1-yl)methyl)phenyl)ethanesulfonamide], the midpoint of inhibition, the IC50, lay at 109 nM.

Turning to `CC(=O)Nc1ccc(CN2CCCC(Nc3ccc4[nH]ncc4c3)C2)cc1` (stereo not shown) [Compound 1.003, N-(4-((3-(1H-indazol-5-ylamino)piperidin-1-yl)methyl)phenyl)acetamide], the IC50 was 6190 nM.

`Clc1ccc(CN2CCC[C@H](Nc3ccc4[nH]ncc4c3)C2)cc1` [Compound 1.081, (S)-N-(1-(4-chlorobenzyl)piperidin-3-yl)-1H-indazol-5-amine] yielded an IC50 of 30.1 nM.

The compound `OCCOc1cccc(CN2CCC[C@@H](Nc3cccc4cnccc34)C2)c1` [Compound 2.034, (R)-2-(3-((3-(isoquinolin-5-ylamino)piperidin-1-yl)methyl)phenoxy)ethanol] displayed an IC50 of 4010 nM.

The compound `CCOC(=O)COc1cccc(CN2CCCC(Nc3ccc4[nH]ncc4c3)C2)c1` (stereo not shown) [Compound 1.060, ethyl 2-(3-((3-(1H-indazol-5-ylamino)piperidin-1-yl)methyl)phenoxy)acetate] gave an IC50 of 87.2 nM.

Compound `COc1ccccc1CN1CCCC(Nc2ccc3[nH]ncc3c2)C1` (stereo not shown) [Compound 1.067, N-(1-(2-methoxybenzyl)piperidin-3-yl)-1H-indazol-5-amine] came in with an IC50 of 1850 nM.

The compound `CS(=O)(=O)c1cccc(CN2CCCC(Nc3ccc4[nH]ncc4c3)C2)c1` (stereo not shown) [Compound 1.048, N-(1-(3-(methylsulfonyl)benzyl)piperidin-3-yl)-1H-indazol-5-amine] had an IC50 of 721 nM.

Take `C#Cc1ccc(CN2CCCC(Nc3ccc4[nH]ncc4c3)C2)cc1` (stereo not shown) [Compound 1.034, N-(1-(4-ethynylbenzyl)piperidin-3-yl)-1H-indazol-5-amine]: the IC50 came to 69.1 nM.

With `c1cc(CN2CC[C@@H](Nc3cccc4cnccc34)C2)cc(C2CC2)c1` [Compound 2.020, (R)-N-(1-(3-cyclopropylbenzyl)pyrrolidin-3-yl)isoquinolin-5-amine], 820 nM corresponded to half-maximal inhibition (IC50).

The compound `OCCOc1ccc(CN2CCCC(Nc3ccc4[nH]ncc4c3)C2)cc1` (stereo not shown) [Compound 1.018, 2-(4-((3-(1H-indazol-5-ylamino)piperidin-1-yl)methyl)phenoxy)ethanol] yielded an IC50 of 2410 nM.

Take `OCCn1ccc2ccc(CN3CCC[C@H](Nc4ccc5[nH]ncc5c4)C3)cc21` [Compound 1.109, (S)-2-(6-((3-(1H-indazol-5-ylamino)piperidin-1-yl)methyl)-1H-indol-1-yl)ethanol]: the IC50 worked out at 242 nM.

`OCCn1ccc2ccc(CN3CCC[C@@H](Nc4ccc5[nH]ncc5c4)C3)cc21` [Compound 1.108, (R)-2-(6-((3-(1H-indazol-5-ylamino)piperidin-1-yl)methyl)-1H-indol-1-yl)ethanol] yielded an IC50 of 367 nM.

`Fc1ccc(CN2CCC[C@H](Nc3ccc4[nH]ncc4c3)C2)cc1F` [Compound 1.072, (S)-N-(1-(3,4-difluorobenzyl)piperidin-3-yl)-1H-indazol-5-amine] yielded an IC50 of 58.5 nM.

In turn, `FC(F)(F)c1cccc(CN2CCCC(Nc3cccc4cnccc34)C2)c1` (stereo not shown) [Compound 2.015, N-(1-(3-(trifluoromethyl)benzyl)piperidin-3-yl)isoquinolin-5-amine] yielded an IC50 of 4190 nM.

On to `NS(=O)(=O)c1cccc(CN2CCCC(Nc3ccc4[nH]ncc4c3)C2)c1` (stereo not shown) [Compound 1.056, 3-((3-(1H-indazol-5-ylamino)piperidin-1-yl)methyl)benzenesulfonamide], for which the midpoint of inhibition, the IC50, lay at 435 nM.

With `CS(=O)(=O)Cc1cccc(CN2CCCC(Nc3ccc4[nH]ncc4c3)C2)c1` (stereo not shown) [Compound 1.041, N-(1-(3-(methylsulfonylmethyl)benzyl)piperidin-3-yl)-1H-indazol-5-amine], it took 137 nM to reach half-maximal inhibition (IC50).

For the compound `COc1ccc(CN2CCC[C@H](Nc3ccc4[nH]ncc4c3)C2)cc1` [Compound 1.079, (S)-N-(1-(4-methoxybenzyl)piperidin-3-yl)-1H-indazol-5-amine], the IC50 worked out at 102 nM.

As for `c1ccc(CN2CCC(Nc3cccc4cnccc34)C2)cc1` (stereo not shown) [Compound 2.006, N-(1-benzylpyrrolidin-3-yl)isoquinolin-5-amine], the midpoint of inhibition, the IC50, lay at 73.9 nM.

As to `CSc1ccc(CN2CCCC(Nc3ccc4[nH]ncc4c3)C2)cc1` (stereo not shown) [Compound 1.008, N-(1-(4-(methylthio)benzyl)piperidin-3-yl)-1H-indazol-5-amine], inhibition was half-maximal at 65.8 nM (IC50).

As to `FC(F)(F)c1cccc(CN2CCC(Nc3cccc4cnccc34)C2)c1` (stereo not shown) [Compound 2.018, N-(1-(3-(trifluoromethyl)benzyl)pyrrolidin-3-yl)isoquinolin-5-amine], the IC50 came out at 632 nM.

For `c1cc2ccc(CN3CCCC(Nc4ccc5[nH]ncc5c4)C3)cc2[nH]1` (stereo not shown) [Compound 1.082, N-(1-((1H-indol-6-yl)methyl)piperidin-3-yl)-1H-indazol-5-amine], the midpoint of inhibition, the IC50, lay at 30.4 nM.

In the case of `CS(=O)(=O)Nc1cccc(CN2CC[C@@H](Nc3cccc4cnccc34)C2)c1` [Compound 2.038, (R)-N-(3-((3-(isoquinolin-5-ylamino)pyrrolidin-1-yl)methyl)phenyl)methanesulfonamide], the IC50 amounted to 112 nM.

With `CC(C)(C)OC(=O)NCc1cccc(CN2CCCC(Nc3ccc4[nH]ncc4c3)C2)c1` (stereo not shown) [Compound 1.057, tert-butyl 3-((3-(1H-indazol-5-ylamino)piperidin-1-yl)methyl)benzylcarbamate], the IC50 is 194 nM.

Compound `C(#CC1CC1)c1ccc(CN2CCCC(Nc3ccc4[nH]ncc4c3)C2)cc1` (stereo not shown) [Compound 1.044, N-(1-(4-(cyclopropylethynyl)benzyl)piperidin-3-yl)-1H-indazol-5-amine] gave an IC50 of 6510 nM.

In turn, `Cc1cccc(CN2CCCC(Nc3ccc4[nH]ncc4c3)C2)c1C` (stereo not shown) [Compound 1.016, N-(1-(2,3-dimethylbenzyl)piperidin-3-yl)-1H-indazol-5-amine] came in with an IC50 of 135 nM.

In turn, `O=C(O)Cn1ccc2cc(CN3CCCC(Nc4ccc5[nH]ncc5c4)C3)ccc21` (stereo not shown) [Compound 1.119, 2-(5-((3-(1H-indazol-5-ylamino)piperidin-1-yl)methyl)-1H-indol-1-yl)acetic acid] yielded an IC50 of 3630 nM.

With `Cc1ccc(CN2CC[C@@H](Nc3cccc4cnccc34)C2)cc1` [Compound 2.025, (R)-N-(1-(4-methylbenzyl)pyrrolidin-3-yl)isoquinolin-5-amine], the IC50 was found to be 29.9 nM.

With `Clc1ccc(CN2CCC(Nc3ccc4[nH]ncc4c3)C2)cc1Cl` (stereo not shown) [Compound 1.062, N-(1-(3,4-dichlorobenzyl)pyrrolidin-3-yl)-1H-indazol-5-amine], half-maximal inhibition (IC50) was put at 155 nM.

`c1cc2cc(CN3CCCC(Nc4ccc5[nH]ncc5c4)C3)ccc2[nH]1` (stereo not shown) [Compound 1.100, N-(1-((1H-indol-5-yl)methyl)piperidin-3-yl)-1H-indazol-5-amine] returned an IC50 of 42.9 nM.

`c1cc(N2CCCC2)ccc1CN1CCCC(Nc2ccc3[nH]ncc3c2)C1` (stereo not shown) [Compound 1.011, N-(1-(4-(pyrrolidin-1-yl)benzyl)piperidin-3-yl)-1H-indazol-5-amine] returned an IC50 of 12200 nM.

Consider `Clc1ccc(CN2CC[C@H](Nc3cccc4cnccc34)C2)cc1` [Compound 2.030, (S)-N-(1-(4-chlorobenzyl)pyrrolidin-3-yl)isoquinolin-5-amine], for which the IC50 turned out to be 2460 nM.

Take `c1cc(CN2CCCC(Nc3cccc4cnccc34)C2)cc(C2CC2)c1` (stereo not shown) [Compound 2.011, N-(1-(3-cyclopropylbenzyl)piperidin-3-yl)isoquinolin-5-amine]: the IC50 came out at 4090 nM.

In the case of `Cc1ccc(CN2CCC[C@H](Nc3ccc4[nH]ncc4c3)C2)cc1` [Compound 1.078, (S)-N-(1-(4-methylbenzyl)piperidin-3-yl)-1H-indazol-5-amine], the concentration for half-maximal inhibition (IC50) is 63.1 nM.

In the case of `CS(=O)(=O)Nc1cc(CN2CCCC(Nc3ccc4[nH]ncc4c3)C2)ccc1Cl` (stereo not shown) [Compound 1.102, N-(5-((3-(1H-indazol-5-ylamino)piperidin-1-yl)methyl)-2-chlorophenyl)methanesulfonamide], the IC50 was 34.3 nM.

In the case of `CS(=O)(=O)Nc1cccc(CN2CCC[C@@H](Nc3ccc4[nH]ncc4c3)C2)c1` [Compound 1.093, (R)-N-(3-((3-(1H-indazol-5-ylamino)piperidin-1-yl)methyl)phenyl)methanesulfonamide], the IC50 was found to be 101 nM.

The compound `CCSc1ccc(CN2CCCC(Nc3ccc4[nH]ncc4c3)C2)cc1` (stereo not shown) [Compound 1.017, N-(1-(4-(ethylthio)benzyl)piperidin-3-yl)-1H-indazol-5-amine] had an IC50 of 215 nM.

In the case of `CS(=O)(=O)Nc1cccc(CN2CCCC(Nc3ccc4[nH]ncc4c3)C2)c1` (stereo not shown) [Compound 1.051, N-(3-((3-(1H-indazol-5-ylamino)piperidin-1-yl)methyl)phenyl)methanesulfonamide], half-maximal inhibition (IC50) required 62.6 nM.

Consider `OC[C@H](O)COc1cccc(CN2CCC[C@@H](Nc3ccc4[nH]ncc4c3)C2)c1` [Compound 1.113, (S)-3-(3-(((R)-3-(1H-indazol-5-ylamino)piperidin-1-yl)methyl)phenoxy)propane-1,2-diol], for which the IC50 is 859 nM.

For the compound `CC(C)(C)OC(=O)NCc1ccc(CN2CCCC(Nc3ccc4[nH]ncc4c3)C2)cc1` (stereo not shown) [Compound 1.027, tert-butyl 4-((3-(1H-indazol-5-ylamino)piperidin-1-yl)methyl)benzylcarbamate], the IC50 was found to be 6600 nM.

In turn, `FC(F)(F)c1cccc(CN2CCCC(Nc3ccc4[nH]ncc4c3)C2)c1` (stereo not shown) [Compound 1.063, N-(1-(3-(trifluoromethyl)benzyl)piperidin-3-yl)-1H-indazol-5-amine] yielded an IC50 of 223 nM.
